Experiment [1] concerns EGFR ligands EGF, TGFα, and cetuximab. In words: Combinatorial CX7C phage library screening on EGFR ligands; consensus motifs (Table 1). It counts as binding. Conditions: EGFR ligand(s) on which the overlapping consensus motif was selected. As for the experimental part: Phage peptide screening and binding assays were performed as described (Cardó-Vila et al., 2003). A random phage peptide library displaying the insert CX7C (where X is any amino acid and C is a cysteine residue) was used for the screening; phage input was 3×10^9 transducing units (TU). Antibodies, EGF, or TGF-α (R&D Systems) were coated onto microtiter wells as described (Smith and Scott, 1993). […] Wells were washed twice with PBS, blocked with PBS containing 3% BSA for 1 hr at room temperature (RT), and incubated with the phage library in 50 μl PBS containing 1.5% BSA. After 2 hr at RT, wells were washed ten times with PBS, and phage were recovered by bacterial infection as described (Smith and Scott, 1993; Giordano et al., 2001; Cardó-Vila et al., 2003). […] Purification of phage particles and sequencing of phage single-stranded (ss) DNA were performed as described (Arap et al., 1998; Pasqualini et al., 2001). Phage ssDNA from 96 individual clones from each of the second, third, and fourth rounds of selection were prepared, and inserts were sequenced.
Peptide-matching software (Mandava et al., 2004) was used to identify motifs resembling targeted ligands. To identify motifs resembling targeted ligands among the selected sequences, the inventors used a peptide-matching software program based on RELIC, an established bioinformatics server for combinatorial peptide analysis and identification of protein-ligand interaction sites (Mandava et al., 2004), designed and implemented through Perl 5.8.1. The program calculates similarity based on a pre-defined amino acid window size (defined empirically and experimentally) between an affinity-selected peptide sequence and the target protein sequence from N-terminus to C-terminus in one-residue shifts to fit the best alignment. The peptide-protein similarity scores for each amino acid residue were calculated based on an amino acid substitution matrix modified to adjust for rare residue representation. In this case, similarity scores were calculated based on a 5-residue window, with every pentamer motif in each selected peptide compared to each pentamer segment of the protein. Empirical similarity score thresholds were set with at least three identical residues plus one similar residue between the peptide and the protein segment.
A combinatorial approach was used to identify consensus protein-interacting sites within the EGFR. […] Serial enrichment in all selections was observed (FIGS. 1A-C). Bovine serum albumin (BSA), VEGF, and irrelevant IgG served as negative controls.
A comprehensive protein similarity analysis of selected peptides (n=384) was performed to identify sequences resembling the extracellular domain of the EGFR. Overlapping consensus motifs selected in all three EGFR ligands were identified, mapped, and consolidated within the five dominant candidate regions (Cys227-Cys240, Cys283-Asp290, Cys486-Cys491, Cys547-Cys567, Cys604-Lys618; not accounting for the signal peptide, as indicated) within the primary structure of the receptor (FIG. 2A, yellow highlights).

Experiment [2] has as its system HN5 tumor cells. The experiment is described as follows: Cell viability/proliferation, MTT assay, HN5. The format is cell-based, human. Also on record: cell proliferation / viability: dose or concentration left out as unconfirmed. As to conditions: HN5, MTT, 120 h, increasing concentrations, FIG. 4C. The procedure:
(§1) A representative experiment is depicted. […] Bars represent mean±SEM. […] (FIG. 4C) Effect of the synthetic peptides on HN5 tumor cells. […] Viability in the absence of peptide was set to 100%. […] Bars represent mean±SEM. […] Receptors were immunoprecipitated with antibodies against phosphorylated (p) pEGFR and were immunoblotted with anti-phosphotyrosine IgG.
(§2) Tumor cell lines HN5, UMSCC 10A, GEO and EF43.fgf-4 were culture in standard conditions. Viability was assessed by MTT assays (Sigma) as described (Cardó-Vila et al., 2003). […] Samples were read at 570 nm.
Tumor cell lines HN5, UMSCC 10A, GEO and EF43.fgf-4 were maintained in high-glucose DMEM, supplemented with 10% heat-inactivated fetal bovine serum, 20 mM HEPES (pH 7.4), 100 IU/ml penicillin, 100 μg/ml streptomycin, and 4 mM glutamine at 5% CO2 at 37° C. EF43.fgf-4 were grown in G418 as described (Hajitou et al., 2006).
A general note: Formazan colour is commonly taken as a measure of viable cells.

Experiment [3] relates to EF43.fgf-4-derived tumors. The experiment is described as follows: Treatment of tumor-bearing mice with peptides and peptidomimetics, tumor volume. As to conditions: Balb/c mice, EF43.fgf-4 tumors, 750 μg/mouse/dose. The format is in vivo. The text has this:
FIGS. 5A-B: CVRAC-targeted phage homes to tumor. (FIG. 5A) Targeting tumors versus control organs. […] An anti-phage antibody was used for staining H&E staining, with the corresponding fluorescence-based immunostaining, are shown in tumors (FIG. 5A). Tumor-bearing mice received CVRAC phage, CVAAC phage, or insertless control phage as indicated. Cohorts of tumor-bearing mice (n=5 mice/group) were used. A representative experiment is shown. Scale bar, 100 μm. (FIG. 5B) Treatment of tumor-bearing mice with peptides and peptidomimetics. Balb/c mice bearing EF43.fgf-4-derived tumors were divided into size-matched cohorts (n=7 mice/group); individual tumor volumes are represented before (black circles) and after (white circles). Peptides and peptidomimetics were administered at 750 μg/mouse/dose for 5 days. Shown are mean tumor volumes±SEM.
Selective phage homing to tumors was evaluated as described (Hajitou et al., 2006; Arap et al., 1998). […] Each cohort of mice (n=3 per experiment) with size-matched tumors received a set of test and control phage clones. After 6 h, tumor-bearing mice were perfused through the heart with 20 ml of PBS containing 4% paraformaldehyde (PFA). […] For experimental therapy, Balb/c mice bearing EF43.fgf-4-derived tumors were established, and tumor volumes were determined as described (Arap et al., 1998; Hajitou et al., 2006; Ciardiello et al., 1999). […]

A further experiment relates to GEO tumor cells. In words: Inhibition by peptide of the cetuximab-dependent inhibition of proliferation, GEO. Conditions: with cetuximab. It counts as cell-based, human. As for the experimental part: as §2
The test system of experiment [4] is binding of cetuximab to the EGFR. In words: ELISA inhibition of binding of cetuximab to the EGFR by synthetic peptides (FIG. 3B, FIGS. 7A-C). As to conditions: for inhibition of binding of cetuximab to the EGFR: ELISA, FIG. 3B; for initial functional screen of consensus motif panel (n=15) with cetuximab: FIGS. 7A-C. The text has this: (§3) BSA served as an additional negative control, and the EGFR, as a positive control. […] Insertless phage served as a negative control. […] Bars represent mean±SEM.
Similar methodologies have been applied to therapeutic (Binder et al., 2006; Binder et al., 2007; Riemer et al., 2005) or diagnostic (Jaalouk et al., 2007) antibodies in a strategy that could reveal mechanisms of action (Binder et al., 2007), identify biological reagents for immunization (Riemer et al., 2005), or discover unrecognized antigens (Jaalouk et al., 2007).
A general note: In an ELISA, binding on a coated surface is turned into a signal by an enzyme label.

The subject of experiment [5] is HN5 tumor cells. In words: Inhibition by peptide of the cetuximab-dependent inhibition of proliferation, HN5. The format is cell-based, human. As to conditions: HN5, with cetuximab; 60 μM or 180 μM CVRAC, FIG. 4A. The procedure:
as §1, §2

Experiment [6] is described as follows: Nuclear magnetic resonance (NMR)-spectroscopy interactions. It counts as binding.
The test system of experiment [7] is polyclonal anti-CVRAC antibodies. In words: ELISA recognition of peptides by polyclonal anti-CVRAC antibodies (FIG. 4B). The format is binding, rabbit.
Excerpt: as §1
Rabbits were immunized with KLH-conjugated CVRAC and a purified antibody was obtained. […] The capacity of rabbit IgG against CVRAC to recognize CVRAC, D(CARVC), and EGFR was measured by ELISA.
(§4) The EGFR served as an immobilized positive control, and BSA or control peptides (CVAAC) served as immobilized negative controls.

For a further experiment, the system named is cetuximab. The experiment is described as follows: Binding of synthetic peptides to cetuximab (ELISA-based, FIG. 3A, FIG. 4B). As to conditions: FIG. 4B (peptides plated at 10 μg/ml).
Excerpt: as §3, §1, §4

In the next experiment the test system is EGFR. In words: EGF-induced EGFR autophosphorylation (immunoprecipitation, anti-phosphotyrosine blot). As to conditions: HN5 tumor cells, EGF 15 min, FIG. 4E. The format is cell-based, human.
Excerpt: as §1

Square brackets hold non-standard residues; d marks the D form. Ends that are not written are not given here.

With CQKCDPSC, the Selected on result in experiment [1] was “Cetuximab & TGFα”.

Regarding “CVRAC [synthetic cyclic peptide, EGFR residues 283-287]”, the “cell proliferation / viability” value in the experiment with HN5 tumor cells [2] is recorded as “proliferated much less”. Also, in [3], the “therapeutic efficacy, tumor growth” value was “showed therapeutic efficacy in vivo”. Further, the “inhibition of the antibody-dependent inhibition of proliferation” value with GEO tumor cells is given as “concentration-dependent inhibition”. Moreover, in experiment [4], the “inhibition of binding of cetuximab to the EGFR” value is on record as “Concentration-dependent inhibition” and the “initial functional screen of consensus motif panel (n=15) with cetuximab” value is recorded as “not significantly different”. In addition, the “inhibition of the antibody-dependent inhibition of proliferation” value in the experiment with HN5 tumor cells [5] is “concentration-dependent inhibition”. For the same substance, the “interactions by NMR-spectroscopy” value in [6] is on record as “Low-affinity interactions (micromolar range)”. Besides, the “recognition by polyclonal anti-CVRAC antibodies” value in experiment [7] was “recognized”. Also, the “binding of synthetic peptide to cetuximab” value in the experiment with cetuximab is reported as “specifically bind to cetuximab”.

In the case of “THTPPLDPQEL [synthetic EGFR-mimicking peptide]”, the Selected on result in experiment [1] is “EGF & TGFα”.

Regarding “CRKFRDEATC [synthetic EGFR-mimicking peptide]”, the Selected on entry in experiment [1] was “All EGFR ligands”.

“CVRACGAD (not fully specified (bridges); also: cyclic, ring type and places not given here) [synthetic cyclic peptide, EGFR residues 283-290]”: in [4], the “inhibition of binding of cetuximab to the EGFR” value was “Concentration-dependent inhibition” and the “initial functional screen of consensus motif panel (n=15) with cetuximab” value is listed as “best concentration-dependent ligand peptide”. The Selected on result in experiment [1] was “All EGFR ligands”. For the same substance, the “binding of synthetic peptide to cetuximab” value in the experiment with cetuximab is given as “specifically bind to cetuximab”.

As for “IIRGRTK [synthetic EGFR-mimicking peptide]”, in [1], the Selected on result was “EGF & TGFα”.

Turning to “AQQCSGRCRGKSPSD [synthetic EGFR-mimicking peptide]”, in experiment [1], the Selected on result is “EGF & TGFα”.

Consider “CSPEGC (also: cyclic, ring type not given here) [synthetic EGFR-mimicking peptide]”, for which the Selected on entry in experiment [1] is on record as “All EGFR ligands”.

Take “CPAGVM [synthetic EGFR-mimicking peptide]”: the Selected on result in experiment [1] is recorded as “Cetuximab”.

With “CKDTC [synthetic EGFR-mimicking peptide]”, the Selected on entry in experiment [1] is given as “All EGFR ligands”.

As for “CLPQAMNIT [synthetic EGFR-mimicking peptide]”, the Selected on result in experiment [1] is recorded as “Cetuximab”.

“D(CAAVC) ([dC][dA][dA][dV][dC]; cysteine pairing not given here; also: peptidomimetic) [negative control peptidomimetic with a mutation corresponding to EGFR Arg285Ala, reference compound]”: the “EGF-induced tyrosine phosphorylation of the EGFR” value with EGFR is listed as “not”.

As to “QRNYDLSFL [synthetic EGFR-mimicking peptide]”, in experiment [1], the Selected on entry is given as “EGF & TGFα”.

With “IQCAHYIDGPHC [synthetic EGFR-mimicking peptide]”, in experiment [1], the Selected on entry is on record as “All EGFR ligands”.

Consider “CTGPGLEGCPTNGPK [synthetic EGFR-mimicking peptide]”, for which the Selected on result in experiment [1] is reported as “All EGFR ligands”.

With “CTGRGPDNCIQ [synthetic EGFR-mimicking peptide]”, the Selected on result in experiment [1] is given as “All EGFR ligands”.

For “PNGSCW [synthetic EGFR-mimicking peptide]”, the Selected on result in experiment [1] is given as “Cetuximab”.

The record behind these values is US20130059793A1, “EGF RECEPTOR MIMICKING PEPTIDES” (BOARD OF REGENTS, THE UNIVERSITY OF TEXAS SYSTEM, priority 2010, published 2013).
